Results reported in article PMC11544888, “Sustainable Primary Cell Banking for Topical Compound Cytotoxicity Assays: Protocol Validation on Novel Biocides and Antifungals for Optimized Burn Wound Care” (European Burn Journal, 2024).
In brackets after ≈: the same amount, converted by molar mass.

Key:
[1] = test system: primary dermal fibroblasts; assay: In vitro cytotoxicity assay (CellTiter viability) in polydactyly-derived primary dermal fibroblasts; type: cell-based, human
Method: All of the samples were prepared on the day of the assays. Each product/stock solution was diluted with CfM or CAM until the desired concentration ranges were obtained for the in vitro cytotoxicity assessments, based on OECD recommendations (i.e., with serial dilutions). The tested CLX- and HOCl-based biocides were used as received, apart from dilution with cell culture medium. To perform the cytotoxicity assays, WCB II vials of primary cells and vials of control cell lines (i.e., HaCaT keratinocytes) were thawed and were expanded to confluency. The cells were then harvested and seeded in 24-well plates at densities of 3 × 10^3 and 6 × 10^3 cells/well. The cultures were maintained for 7 days as described previously. The test items were then dispensed in the wells of the culture plates, following dilution in CfM or CAM. The Vashe® source was tested for cytotoxicity at final HOCl concentrations of 786-6290 μM. The Brio® source was tested for cytotoxicity at final HOCl concentrations of 596-4766 μM. The CLX source was tested for cytotoxicity at final concentrations of 0.2-1978 μM. […] The solutions were transferred to a 96-well plate and were analyzed on a Varioskan LUX 3020 spectrophotometer (ThermoFisher Scientific, Waltham, MA, USA) at 490 nm with agitation. […]

HaCaT keratinocytes = assay: In vitro cytotoxicity assay (CellTiter viability) in HaCaT keratinocytes; type: cell-based, human; details: 48 h treatment
Method: (§1) All of the samples were prepared on the day of the assays. Each product/stock solution was diluted with CfM or CAM until the desired concentration ranges were obtained for the in vitro cytotoxicity assessments, based on OECD recommendations (i.e., with serial dilutions). The tested CLX- and HOCl-based biocides were used as received, apart from dilution with cell culture medium.
(§2) To perform the cytotoxicity assays, WCB II vials of primary cells and vials of control cell lines (i.e., HaCaT keratinocytes) were thawed and were expanded to confluency. The cells were then harvested and seeded in 24-well plates at densities of 3 × 10^3 and 6 × 10^3 cells/well. The cultures were maintained for 7 days as described previously. The test items were then dispensed in the wells of the culture plates, following dilution in CfM or CAM. […] Regarding the AR-12 antifungal compound, cytotoxicity was assessed for a concentration range of 0.27–139 µM. […]
(§3) After 48 h of cell treatment with the test items, the solutions were removed and a 10% solution of CellTiter® (Promega, Madison, WI, USA) in CfM or CAM was added in every well for assessment of cellular viability. […] The solutions were transferred to a 96-well plate and were analyzed on a Varioskan LUX 3020 spectrophotometer (ThermoFisher Scientific, Waltham, MA, USA) at 490 nm with agitation. […]

[2] = test system: most medically relevant test strains of yeast; parameters: method as in PMID 27088128, PMID 27645246; details: cited from earlier work
[3] = test system: adipose-derived stem cells (ASC); assay: In vitro cytotoxicity assay (CellTiter viability) in polydactyly-derived ASCs; type: cell-based, human
Method: as §1, §2, §3

[4] = test system: cultured cells (HaCaT keratinocytes, primary dermal fibroblasts, ASCs); assay: In vitro cytotoxicity model overall (cell type not given); type: cell-based, human
Method: All of the samples were prepared on the day of the assays. Each product/stock solution was diluted with CfM or CAM until the desired concentration ranges were obtained for the in vitro cytotoxicity assessments, based on OECD recommendations (i.e., with serial dilutions). The tested CLX- and HOCl-based biocides were used as received, apart from dilution with cell culture medium. To perform the cytotoxicity assays, WCB II vials of primary cells and vials of control cell lines (i.e., HaCaT keratinocytes) were thawed and were expanded to confluency. The cells were then harvested and seeded in 24-well plates at densities of 3 × 10^3 and 6 × 10^3 cells/well. The cultures were maintained for 7 days as described previously. The test items were then dispensed in the wells of the culture plates, following dilution in CfM or CAM. The Vashe® source was tested for cytotoxicity at final HOCl concentrations of 786-6290 μM. The Brio® source was tested for cytotoxicity at final HOCl concentrations of 596-4766 μM. The CLX source was tested for cytotoxicity at final concentrations of 0.2-1978 μM. […] The retained test item experimental concentrations were selected based on the OECD […] guideline and on high-throughput screening principles. After 48 h of cell treatment with the test items, the solutions were removed and a 10% solution of CellTiter® (Promega, Madison, WI, USA) in CfM or CAM was added in every well for assessment of cellular viability. The plates were then placed in the incubator for 90 min. The solutions were transferred to a 96-well plate and were analyzed on a Varioskan LUX 3020 spectrophotometer (ThermoFisher Scientific, Waltham, MA, USA) at 490 nm with agitation. Following the cytotoxicity model validation in 24-well plates, the same procedure was used for optimization and upscaling in 96-well plates. The culture plates were seeded with 5 × 10^3 cells/well (i.e., for primary cells) and 10^4 cells/well (i.e., for HaCaT keratinocytes) in a CfM volume of 100 μL per well. […]

NCC(=O)Nc1ccc(-n2nc(C(F)(F)F)cc2-c2ccc3c(ccc4ccccc43)c2)cc1 [AR-12] gave a cytotoxicity values [1] of 4 to 8 µg/mL, an IC50 ([1]; 48 h treatment, CellTiter viability) of 10.7 ± 0.27 µM and an IC50 (HaCaT keratinocytes) of 9.96 ± 0.35 µM. For the same compound, the MIC [2] was 8 µM (≈ 3.68 µg/mL) and the cytotoxicity values [3] was 4 to 8 µg/mL.

In the case of OCl [HOCl, hypochlorous acid], the “comparative in vitro cytotoxicity” value ([4]; Figures 4-6) is reported as “less toxicity than CLX” and the “dose showing in vitro cytotoxicity” value ([4]; in vitro data gathered herein, 50 times lower than 100–200 ppm in-use doses) is reported as 4 µg/mL.

In the case of [H]/N=C(\N/C(=N/[H])NCCCCCCNC(=N)NC(=N)Nc1ccc(Cl)cc1)Nc1ccc(Cl)cc1 [CLX, chlorhexidine], the “dilution needed to avoid toxicity in cultured cells” value ([4]; human, 48 h) is reported as 10- and 100.
